According to patent publication US12065436B2, “Cardiac sarcomere inhibitors” (Cytokinetics, Inc., priority 2018, dated 2024):

Target: bovine cardiac myofibrils (full-length cardiac myosin ATPase in the native sarcomere) (Bos taurus (Bovine), UniProt Q9BE39)
Test: Skinned bovine cardiac myofibril ATPase assay (PK/LDH-coupled)
Type: biochemical
Settings: Ca2+ activating to 75% of maximal rate; for CDMF75 IC15: concentration giving 15% inhibition; for IC50: read-out: CDMF75 IC50
Outline: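 Inhibition of steady-state ATPase read at 340 nm through a PK/LDH-coupled NADH system (0.5 mM NADH, 1.5 mM PEP). Detergent-skinned bovine cardiac myofibrils, 1 mg/mL, were tested at pH 6.8 in PIPES/MgCl2 with 50 μM ATP and calcium adjusted to give pCa50 or pCa75 activation.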

bovine cardiac myofibrils (full-length cardiac myosin ATPase in the native sarcomere), sequence (Q9BE39 whole entry): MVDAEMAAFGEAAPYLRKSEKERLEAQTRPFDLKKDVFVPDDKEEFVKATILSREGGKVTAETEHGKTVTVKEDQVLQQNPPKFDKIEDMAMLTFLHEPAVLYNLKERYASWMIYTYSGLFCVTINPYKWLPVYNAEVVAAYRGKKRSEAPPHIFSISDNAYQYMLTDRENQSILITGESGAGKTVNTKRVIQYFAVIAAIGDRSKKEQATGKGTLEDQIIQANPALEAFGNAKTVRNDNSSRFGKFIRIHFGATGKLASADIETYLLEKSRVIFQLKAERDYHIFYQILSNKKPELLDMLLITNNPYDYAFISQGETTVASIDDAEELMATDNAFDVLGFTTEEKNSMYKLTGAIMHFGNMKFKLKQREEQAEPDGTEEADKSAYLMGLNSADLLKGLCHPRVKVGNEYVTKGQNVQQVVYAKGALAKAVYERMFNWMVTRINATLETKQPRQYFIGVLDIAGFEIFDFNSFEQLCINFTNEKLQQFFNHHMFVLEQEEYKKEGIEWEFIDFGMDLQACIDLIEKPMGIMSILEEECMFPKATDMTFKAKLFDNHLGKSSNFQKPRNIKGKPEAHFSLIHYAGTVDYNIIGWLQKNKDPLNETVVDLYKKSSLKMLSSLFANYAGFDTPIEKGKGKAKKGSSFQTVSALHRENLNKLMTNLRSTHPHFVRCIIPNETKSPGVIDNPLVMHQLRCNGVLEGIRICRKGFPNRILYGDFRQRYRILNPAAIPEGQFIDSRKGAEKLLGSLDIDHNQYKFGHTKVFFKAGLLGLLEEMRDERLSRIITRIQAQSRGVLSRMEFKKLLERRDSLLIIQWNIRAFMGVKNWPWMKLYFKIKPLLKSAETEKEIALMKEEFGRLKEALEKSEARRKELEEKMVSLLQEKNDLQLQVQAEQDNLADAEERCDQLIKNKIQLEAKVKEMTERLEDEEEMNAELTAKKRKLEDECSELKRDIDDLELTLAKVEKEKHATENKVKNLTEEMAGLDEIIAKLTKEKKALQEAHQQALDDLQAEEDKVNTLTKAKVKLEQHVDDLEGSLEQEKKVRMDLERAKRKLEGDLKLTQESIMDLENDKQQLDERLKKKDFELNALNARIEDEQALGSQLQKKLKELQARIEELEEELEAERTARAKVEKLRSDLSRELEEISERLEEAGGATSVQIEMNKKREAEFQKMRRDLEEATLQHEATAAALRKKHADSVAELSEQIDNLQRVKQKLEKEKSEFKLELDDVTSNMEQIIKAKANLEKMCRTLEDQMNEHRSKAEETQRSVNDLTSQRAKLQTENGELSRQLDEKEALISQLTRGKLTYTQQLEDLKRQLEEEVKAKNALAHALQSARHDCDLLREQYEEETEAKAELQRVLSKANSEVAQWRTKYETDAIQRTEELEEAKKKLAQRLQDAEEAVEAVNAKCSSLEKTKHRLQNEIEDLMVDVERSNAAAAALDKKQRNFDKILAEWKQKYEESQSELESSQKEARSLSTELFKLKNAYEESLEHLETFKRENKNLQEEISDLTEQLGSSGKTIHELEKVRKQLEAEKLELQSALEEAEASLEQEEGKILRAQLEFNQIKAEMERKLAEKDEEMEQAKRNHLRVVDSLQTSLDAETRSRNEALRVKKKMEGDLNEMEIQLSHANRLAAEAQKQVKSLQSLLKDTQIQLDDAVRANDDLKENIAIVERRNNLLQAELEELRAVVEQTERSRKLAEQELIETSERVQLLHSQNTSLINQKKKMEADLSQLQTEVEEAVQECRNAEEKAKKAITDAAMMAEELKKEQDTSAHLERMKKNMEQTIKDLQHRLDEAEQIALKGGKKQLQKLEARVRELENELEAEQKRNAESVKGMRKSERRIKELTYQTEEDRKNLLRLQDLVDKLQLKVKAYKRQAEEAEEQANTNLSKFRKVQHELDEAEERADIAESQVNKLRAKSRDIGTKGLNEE
bovine cardiac myofibrils (full-length cardiac myosin ATPase in the native sarcomere), sequence (P85100 whole entry partner): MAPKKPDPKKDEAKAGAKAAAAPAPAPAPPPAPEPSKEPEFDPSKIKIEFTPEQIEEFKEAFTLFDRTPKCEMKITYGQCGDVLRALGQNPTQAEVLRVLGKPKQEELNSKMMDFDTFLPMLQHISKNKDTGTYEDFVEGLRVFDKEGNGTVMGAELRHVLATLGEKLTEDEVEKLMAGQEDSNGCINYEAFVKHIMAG
bovine cardiac myofibrils (full-length cardiac myosin ATPase in the native sarcomere), sequence (Q3SZE5 whole entry partner): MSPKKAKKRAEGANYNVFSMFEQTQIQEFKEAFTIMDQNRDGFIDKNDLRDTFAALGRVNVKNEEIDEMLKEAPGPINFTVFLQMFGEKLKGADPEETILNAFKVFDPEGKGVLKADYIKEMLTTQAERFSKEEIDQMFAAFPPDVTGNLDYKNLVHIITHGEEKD

## COc1cc(C(=O)N[C@@H]2CCc3cc(-c4noc(C(F)F)n4)ccc32)on1 [Compound 680, (R)-N-(5-(5-(difluoromethyl)-1,2,4-oxadiazol-3-yl)-2,3-dihydro-1H-inden-1-yl)-3-methoxyisoxazole-5-carboxamide]
  CDMF75 IC15: 0.5 µM
  IC50: 1.7 µM

## Cc1cnc(C(=O)N[C@@H]2CCc3cc(-c4noc(C(F)F)n4)ccc32)o1 [Compound 681, (R)-N-(5-(5-(difluoromethyl)-1,2,4-oxadiazol-3-yl)-2,3-dihydro-1H-inden-1-yl)-5-methyloxazole-2-carboxamide]
  CDMF75 IC15: 1.3 µM
  IC50: 5.9 µM

## O=C(N[C@@H]1CCc2cc(-c3noc(C(F)F)n3)ccc21)c1ocnc1C(F)(F)F [Compound 682, (R)-N-(5-(5-(difluoromethyl)-1,2,4-oxadiazol-3-yl)-2,3-dihydro-1H-inden-1-yl)-4-(trifluoromethyl)oxazole-5-carboxamide]
  CDMF75 IC15: 0.4 µM
  IC50: 1.6 µM

## Cc1cc(C(=O)N[C@@H]2CCc3cc(-c4noc(C(F)F)n4)ccc32)ncn1 [Compound 683, (R)-N-(5-(5-(difluoromethyl)-1,2,4-oxadiazol-3-yl)-2,3-dihydro-1H-inden-1-yl)-6-methylpyrimidine-4-carboxamide]
  CDMF75 IC15: 1.1 µM
  IC50: 4.6 µM

## COc1cc(C(=O)N[C@@H]2CCc3cc(-c4noc(C(F)F)n4)ccc32)ccn1 [Compound 684, (R)-N-(5-(5-(difluoromethyl)-1,2,4-oxadiazol-3-yl)-2,3-dihydro-1H-inden-1-yl)-2-methoxyisonicotinamide]
  CDMF75 IC15: 1.1 µM
  IC50: 5 µM

## O=C(N[C@@H]1CCc2cc(-c3noc(C(F)F)n3)ccc21)c1ccnc(C(F)F)c1 [Compound 685, (R)-2-(difluoromethyl)-N-(5-(5-(difluoromethyl)-1,2,4-oxadiazol-3-yl)-2,3-dihydro-1H-inden-1-yl)isonicotinamide]
  CDMF75 IC15: 0.7 µM
  IC50: 2.6 µM

## Cc1nn(CCO)cc1C(=O)N[C@@H]1CCc2cc(-c3noc(C(F)F)n3)ccc21 [Compound 686, (R)-N-(5-(5-(difluoromethyl)-1,2,4-oxadiazol-3-yl)-2,3-dihydro-1H-inden-1-yl)-1-(2-hydroxyethyl)-3-methyl-1H-pyrazole-4-carboxamide]
  CDMF75 IC15: 0.9 µM
  IC50: 3.1 µM

## Cc1cc(C(=O)N[C@@H]2CCc3cc(-c4noc(C(F)F)n4)ccc32)cnn1 [Compound 687, (R)-N-(5-(5-(difluoromethyl)-1,2,4-oxadiazol-3-yl)-2,3-dihydro-1H-inden-1-yl)-6-methylpyridazine-4-carboxamide]
  CDMF75 IC15: 1.0 µM
  IC50: 4.4 µM

## COCc1nc(-c2ccc3c(c2)CC[C@H]3NC(=O)c2cc(C)no2)no1 [Compound 688, (R)-N-(5-(5-(methoxymethyl)-1,2,4-oxadiazol-3-yl)-2,3-dihydro-1H-inden-1-yl)-3-methylisoxazole-5-carboxamide]
  CDMF75 IC15: 1.7 µM
  IC50: 6.8 µM

## COCc1nc(-c2ccc3c(c2)CC[C@H]3NC(=O)c2conc2C)no1 [Compound 689, (R)-N-(5-(5-(methoxymethyl)-1,2,4-oxadiazol-3-yl)-2,3-dihydro-1H-inden-1-yl)-3-methylisoxazole-4-carboxamide]
  CDMF75 IC15: 0.6 µM
  IC50: 2.1 µM

## COCc1nc(-c2ccc3c(c2)CC[C@H]3NC(=O)c2cc(C)on2)no1 [Compound 690, (R)-N-(5-(5-(methoxymethyl)-1,2,4-oxadiazol-3-yl)-2,3-dihydro-1H-inden-1-yl)-5-methylisoxazole-3-carboxamide]
  CDMF75 IC15: 4.4 µM
  IC50: 21.3 µM

## COCc1nc(-c2ccc3c(c2)CC[C@H]3NC(=O)c2nonc2C)no1 [Compound 692, (R)-N-(5-(5-(methoxymethyl)-1,2,4-oxadiazol-3-yl)-2,3-dihydro-1H-inden-1-yl)-4-methyl-1,2,5-oxadiazole-3-carboxamide]
  CDMF75 IC15: 1.0 µM
  IC50: 4.6 µM
